The first experiment concerns PRMT5 (SDMA) in HAP1 MTAP-intact cell line. In words: SDMA in-cell western assay, HAP1 MTAP-intact cell line. Format: cell-based. As to conditions: Homo sapiens, HAP1 MTAP-intact cell line (endogenous MTAP), read-out: Hap 1 MTAP intact IC50. The text has this:
(§1) HAP1 MTAP-intact is a cell line in which endogenous levels of MTAP are expressed, and HAP1 MTAP-deleted is an MTAP-null cell line.
As a reminder, the IC50 is the point on the concentration scale where inhibition reaches its midpoint. In the case of `CC(C)C(=O)N1C[C@H](c2ccc(N3CCN(C)CC3)cc2)N(C(=O)C(=O)Nc2cnc(N)c(C3CC3)c2)C[C@H]1C` (racemic) [Compound 4, rac-N-(6-amino-5-cyclopropylpyridin-3-yl)-2-((2R,5S)-4-isobutyryl-5-methyl-2-(4-(4-methylpiperazin-1-yl)phenyl)piperazin-1-yl)-2-oxoacetamide], the IC50 is above 50 nM.

The test system of the next experiment is PRMT5 (SDMA) in HAP1 MTAP-deleted cell line. In words: SDMA in-cell western assay, HAP1 MTAP-deleted cell line. It counts as cell-based. The note with it: Homo sapiens; SDMA in-cell western, HAP1 MTAP-deleted (MTAP-null) cell line.
Source text: as §1
A word on the IC90: it is the concentration at which the effect reaches the 90% level. A high value points to a need for much substance. Regarding `CC(C)C(=O)N1C[C@H](c2ccc(N3CCN(C)CC3)cc2)N(C(=O)C(=O)Nc2cnc(N)c(C3CC3)c2)C[C@H]1C` (racemic) [Compound 4, rac-N-(6-amino-5-cyclopropylpyridin-3-yl)-2-((2R,5S)-4-isobutyryl-5-methyl-2-(4-(4-methylpiperazin-1-yl)phenyl)piperazin-1-yl)-2-oxoacetamide], the 50% inhibitory concentration (IC50) lay within 5 to 50 nM and the concentration for an effect of 90% (IC90) was above 125 nM.

Still in this experiment, the particulars now being: ratio of SDMA in-cell western IC50 in HAP1 MTAP-intact to IC50 in HAP1 MTAP-deleted cell line.
On to `CC(C)C(=O)N1C[C@H](c2ccc(N3CCN(C)CC3)cc2)N(C(=O)C(=O)Nc2cnc(N)c(C3CC3)c2)C[C@H]1C` (racemic) [Compound 4, rac-N-(6-amino-5-cyclopropylpyridin-3-yl)-2-((2R,5S)-4-isobutyryl-5-methyl-2-(4-(4-methylpiperazin-1-yl)phenyl)piperazin-1-yl)-2-oxoacetamide], for which the “Hap1 MTAP intact/deleted ratio” value is listed as “C (an IC50 ratio of less than 15 fold)”.
The same measure, in the same setting: under `CC(C)C(=O)N1C[C@H](c2ccc(F)cc2)N(C(=O)C(=O)Nc2cnc(N)c(C3CC3)c2)C[C@H]1C` [Compound 19] stands “C (an IC50 ratio of less than 15 fold)”.

The test system of the next experiment is HAP1 MTAP-deleted cell line. In words: viability assay for the MTAP-deleted cell line. It counts as cell-based.
Details: not given
With `Cc1cc(NC(=O)C(=O)N2C[C@@H](C)N(C(=O)C(C)(C)C)C[C@@H]2c2ccc(F)cc2)cnc1N` (stereo in doubt) [Compound 106, N-(6-amino-5-methylpyridin-3-yl)-2-(2-(4-fluorophenyl)-5-methyl-4-pivaloylpiperazin-1-yl)-2-oxoacetamide], the half-inhibitory concentration (IC50) was below 100 nM.
`Cc1cc(NC(=O)C(=O)N2C[C@@H](C)N(C(=O)C3(C)CC3)C[C@@H]2c2ccc(F)cc2)cnc1N` (stereo in doubt) [Compound 108, N-(6-amino-5-methylpyridin-3-yl)-2-(2-(4-fluorophenyl)-5-methyl-4-(1-methylcyclopropanecarbonyl)piperazin-1-yl)-2-oxoacetamide]: the IC50 was below 100 nM.

Staying with this experiment, now noted: Homo sapiens.
For `CC(C)C(=O)N1C[C@H](c2ccc(N3CCN(C)CC3)cc2)N(C(=O)C(=O)Nc2cnc(N)c(C3CC3)c2)C[C@H]1C` (racemic) [Compound 4, rac-N-(6-amino-5-cyclopropylpyridin-3-yl)-2-((2R,5S)-4-isobutyryl-5-methyl-2-(4-(4-methylpiperazin-1-yl)phenyl)piperazin-1-yl)-2-oxoacetamide], the IC50 lay within 100 to 1000 nM.
Same read-out and setting: under `Cc1cc(NC(=O)C(=O)N2C[C@@H](C)N(C(=O)C(C)C)C[C@@H]2c2ccc(F)cc2)cnc1N` (racemic) [Compound 157, rac-N-(6-amino-5-methylpyridin-3-yl)-2-(2-(4-fluorophenyl)-4-isobutyryl-5-methylpiperazin-1-yl)-2-oxoacetamide] stands 100 to 1000 nM; under `C[C@@H]1CN(C(=O)C(=O)Nc2cnc(N)c3cn[nH]c23)[C@@H](c2ccccc2)CN1C(=O)C1(C)CC1` (racemic) [Compound 161, N-(4-Amino-1H-pyrazolo[4,3-c]pyridin-7-yl)-2-oxo-2-[rac-(2S,5R)-5-methyl-4-(1-methylcyclopropanecarbonyl)-2-phenyl-piperazin-1-yl]acetamide], below 100 nM; under `Cc1cc(NC(=O)C(=O)N2C[C@@H](C)N(C(=O)C(C)C)C[C@@H]2c2ccc(F)cc2)cnc1N` (relative stereo) [Compound 20, N-(6-amino-5-methyl-3-pyridyl)-2-[(2S,5R)-2-(4-fluorophenyl)-5-methyl-4-(2-methylpropanoyl)piperazin-1-yl]-2-oxo-acetamide], 100 to 1000 nM.
`CC(C)CN1C[C@@H](c2ccc(F)cc2)N(C(=O)C(=O)Nc2cnc(N)c(C3CC3)c2)C[C@@H]1C` (single isomer, unassigned) [Compound 26] had an IC50 above 1000 nM.
In turn, `CC(C)CN1C[C@H](c2ccc(F)cc2)N(C(=O)C(=O)Nc2cnc(N)c(C3CC3)c2)C[C@@H]1C` (single isomer, unassigned) [Compound 48] registered an IC50 above 1000 nM.
The molecule `Cc1cc(NC(=O)C(=O)N2CC(C)N(C(=O)C(C)C)C[C@@H]2c2ccc(F)c(F)c2)cnc1N` (stereo in doubt) [Compound 23, N-(6-amino-5-methylpyridin-3-yl)-2-((2S,5R)-2-(3,4-difluorophenyl)-4-isobutyryl-5-methylpiperazin-1-yl)-2-oxoacetamide] registered an IC50 above 1000 nM.
`CC(C)OC(=O)N1C[C@@H](c2ccc(F)cc2)N(C(=O)C(=O)Nc2cnc(N)c(C3CC3)c2)C[C@H]1C` (stereo in doubt) [Compound 82, isopropyl 4-(2-((6-amino-5-cyclopropylpyridin-3-yl)amino)-2-oxoacetyl)-5-(4-fluorophenyl)-2-methylpiperazine-1-carboxylate]: the IC50 was above 1000 nM.
Molecule `CC(C)OC(=O)N1C[C@H](c2ccc(F)cc2)N(C(=O)C(=O)Nc2cnc(N)c(C3CC3)c2)C[C@@H]1C` (stereo in doubt) [Compound 95, isopropyl 4-(2-((6-amino-5-cyclopropylpyridin-3-yl)amino)-2-oxoacetyl)-5-(4-fluorophenyl)-2-methylpiperazine-1-carboxylate] gave an IC50 above 1000 nM.
With `C[C@@H]1CN(C(=O)C(=O)Nc2cncc3[nH]ncc23)C(c2ccc(F)cc2)CN1C(=O)C(C)(C)C` (stereo in doubt) [Compound 103, 2-[(2S,5R)-4-(2,2-dimethylpropanoyl)-2-(4-fluorophenyl)-5-methyl-piperazin-1-yl]-2-oxo-N-(1H-pyrazolo[3,4-c]pyridin-4-yl)acetamide], the IC50 is above 1000 nM.
`Cc1cc(NC(=O)C(=O)N2C[C@@H](C)N(C(=O)C(C)(C)C)C[C@@H]2c2ccc(F)cc2)cnc1N` [Compound 3, N-(6-amino-5-methylpyridin-3-yl)-2-((2S,5R)-2-(4-fluorophenyl)-5-methyl-4-pivaloylpiperazin-1-yl)-2-oxoacetamide]: the IC50 is below 100 nM.
For the molecule `COc1ncc(NC(=O)C(=O)N2C[C@H](C)N(C(=O)C3(C)CC3)C[C@H]2c2ccc(F)cc2)cc1C(N)=O` [Compound 5, 5-(2-((2R,5S)-2-(4-fluorophenyl)-5-methyl-4-(1-methylcyclopropanecarbonyl)piperazin-1-yl)-2-oxoacetamido)-2-methoxynicotinamide], the IC50 was in the range of 100 to 1000 nM.
The same measure, in the same setting: under `Cc1cc(NC(=O)C(=O)N2C[C@@H](C)N(C(=O)C3(C(F)(F)F)CC3)C[C@@H]2c2ccc(F)cc2)cnc1N` [Compound 27] stands below 100 nM; under `CC(C)C(=O)N1C[C@H](c2ccccc2)N(C(=O)C(=O)Nc2cnc(N)c3cn[nH]c23)C[C@H]1C` [Compound 50], below 100 nM; under `C[C@@H]1CN(C(=O)C(=O)Nc2cnc(N)c(C3CC3)c2)[C@@H](c2ccccc2)CN1C(=O)C1(C(F)(F)F)CC1` [Compound 51, N-(6-amino-5-cyclopropylpyridin-3-yl)-2-((2S,5R)-5-methyl-2-phenyl-4-(1-(trifluoromethyl)cyclopropanecarbonyl)piperazin-1-yl)-2-oxoacetamide], below 100 nM.
Same read-out and setting: under `C[C@H]1CN(C(=O)C(=O)Nc2cnc(N)c(C3CC3)c2)[C@@H](c2ccc(F)cc2)CN1C(=O)CC1CC1` [Compound 56] stands above 1000 nM; under `Cc1cc(NC(=O)C(=O)N2C[C@H](C)N(C(=O)C3(C(F)(F)F)CC3)C[C@H]2c2ccc(F)cc2)cnc1N` [Compound 64], above 1000 nM.
On the same count and under the same terms, for `COc1ncc(NC(=O)C(=O)N2C[C@@H](C)N(C(=O)C3(C)CC3)C[C@@H]2c2ccc(F)cc2)cc1C(N)=O` [Compound 102, 5-(2-((2S,5R)-2-(4-fluorophenyl)-5-methyl-4-(1-methylcyclopropanecarbonyl)piperazin-1-yl)-2-oxoacetamido)-2-methoxynicotinamide] the value was above 1000 nM.
Consider `Cc1cc(NC(=O)C(=O)N2C[C@@H](C)N(C(=O)C3(C)CC3)C[C@@H]2c2ccc(F)cc2)cnc1N` [Compound 104, N-(6-amino-5-methylpyridin-3-yl)-2-((2S,5R)-2-(4-fluorophenyl)-5-methyl-4-(1-methylcyclopropanecarbonyl)piperazin-1-yl)-2-oxoacetamide], for which the half-maximal inhibitory concentration (IC50) is below 100 nM.
With `C[C@@H]1CN(C(=O)C(=O)Nc2cnc(N)c3cn[nH]c23)[C@@H](c2ccccc2)CN1C(=O)C(C)(C)C` [Compound 124, N-(4-amino-1H-pyrazolo[4,3-c]pyridin-7-yl)-2-((2S,5R)-5-methyl-2-phenyl-4-pivaloylpiperazin-1-yl)-2-oxoacetamide], the IC50 is below 100 nM.
The same measure, in the same setting: for `C[C@@H]1CN(C(=O)C(=O)Nc2cnc(N)c(C3CC3)c2)[C@H](c2ccc(F)cc2)CN1C(=O)CC1CC1` [Compound 136] the value was above 1000 nM; for `C[C@@H]1CN(C(=O)C(=O)Nc2cnc(N)c(C3CC3)c2)[C@@H](c2ccc3scnc3c2)CN1C(=O)C1(C(F)(F)F)CC1` [Compound 141, N-(6-amino-5-cyclopropyl-3-pyridyl)-2-[(2S,5R)-2-(1,3-benzothiazol-5-yl)-5-methyl-4-[1-(trifluoromethyl)cyclopropanecarbonyl]piperazin-1-yl]-2-oxo-acetamide], below 100 nM.
`C[C@@H]1CN(C(=O)C(=O)Nc2cnc(N)c3cn[nH]c23)[C@@H](c2ccccc2)CN1C(=O)C1(C(F)(F)F)CC1` [Compound 155]: the IC50 is below 100 nM.
Same read-out and setting: for `CC(C)C(=O)N1C[C@H](c2ccccc2)N(C(=O)C(=O)Nc2cnc(N)c3c2cnn3C)C[C@H]1C` [Compound 165, N-(7-Amino-1-methyl-pyrazolo[3,4-c]pyridin-4-yl)-2-oxo-2-[(2S,5R)-5-methyl-4-(2-methylpropanoyl)-2-phenyl-piperazin-1-yl]acetamide] the value was below 100 nM.
Take `C[C@@H]1CN(C(=O)C(=O)Nc2cnc(N)c3c2cnn3C)[C@@H](c2ccccc2)CN1C(=O)C1(C(F)(F)F)CC1` [Compound 166, N-(7-Amino-1-methyl-pyrazolo[3,4-c]pyridin-4-yl)-2-oxo-2-[(2S,5R)-5-methyl-2-phenyl-4-[1-(trifluoromethyl)cyclopropanecarbonyl]piperazin-1-yl]acetamide]: the IC50 was below 100 nM.
Molecule `CC(=O)N1C[C@H](c2ccccc2)N(C(=O)C(=O)Nc2cnc(N)c3c2cnn3C)C[C@H]1C` [Compound 168, N-(7-Amino-1-methyl-pyrazolo[3,4-c]pyridin-4-yl)-2-oxo-2-[(2S,5R)-4-acetyl-5-methyl-2-phenyl-piperazin-1-yl]acetamide] gave an IC50 below 100 nM.

These data come from patent US20250282749A1 (Tango Therapeutics, Inc., priority 2022, published 2025).
